# Legend:
# [1] = molecular target: T1, human S1P4 (formerly Edg 6) (Homo sapiens, UniProt O95977); assay: phospho ERK 1/2 ELISA in CHO cells stably transfected with human S1P4; assay type: cell-based; settings: CHO EDG6 (S1P4); 10 nM S1P, no antibody
# T1 sequence (O95977 1-384): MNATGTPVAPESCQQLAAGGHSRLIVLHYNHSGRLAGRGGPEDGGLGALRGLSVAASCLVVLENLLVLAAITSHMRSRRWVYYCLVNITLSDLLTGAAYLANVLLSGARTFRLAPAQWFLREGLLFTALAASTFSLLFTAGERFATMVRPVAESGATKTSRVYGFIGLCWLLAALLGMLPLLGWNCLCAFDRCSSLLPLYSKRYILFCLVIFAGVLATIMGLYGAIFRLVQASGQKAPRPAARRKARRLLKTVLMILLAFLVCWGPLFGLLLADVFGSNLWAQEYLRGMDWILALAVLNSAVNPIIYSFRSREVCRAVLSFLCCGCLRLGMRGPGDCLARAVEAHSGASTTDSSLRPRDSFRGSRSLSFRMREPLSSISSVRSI
# Experimental: (§1) For example, CHO cells that are stably transfected with human S1P4 (formerly Edg 6) a GPCR (g protein coupled receptor) for sphingosine 1-phosphate (S1P) a lipid growth factor mediator or mock transfected CHO control cells are washed in DMEM and starved of serum for 4 hours at 37° C.
# (§2) One million cells in 1 ml serum free DMEM were challenged with monoclonal antibodies that had been raised against a S1P4 cyclic molecular mimic loop 1B structure described herein for 10 minutes at room temperature. Monoclonal antibody supernatants containing DMEM with 10% fetal bovine serum antibiotics, L glutamine media supplements, were pretreated with cell culture tested Norite™ (Sigma Chemical Company) for 24 hours at 4 C to remove endogenous S1P from the media prior to the addition of supernatant to cells. Following antibody addition and incubation, 10 nM S1P was added for 15 minutes at 37 C. Controls of media alone, media and Norite™, media and 10 nM S1P, media-Norite™ and SIP, and media PMA were included. [drawing]
# [2] = system: mock transfected CHO control cells; assay: phospho ERK 1/2 ELISA in mock transfected CHO control cells; assay type: cell-based; settings: 10 nM S1P, no antibody
# Experimental: as §1, §2
# [3] = NMR spectra of mixtures of loop peptide and O-phosphoethanolamine; assay type: binding; settings: mixture with O-phosphoethanolamine
# From the text: NMR is used to characterize the interactions between the extracellular loops and O-phosphoethanolamine, a mimic of the S1P4 endogenous ligand to determine if potential for ligand binding exists.
# The most important NMR result for the characterization of the interaction between the constrained peptides and O-phosphoethanolamine are heteronuclear 2D-NOE that allow derivation of the distances between the cationic nitrogens of R121 and R287 and the phosphate phosphorous atom of O-phosphoethanolamine. Additional information is derived from chemical shift changes of the protons in residues of the loop peptides upon addition of the phosphoethanolamine as well as chemical shift changes of protons on the phosphoethanolamine. Such chemical shift changes are indicative of changes in the electronic environment of these protons and are used in high-throughput NMR assays of ligand binding. (Shuker, S. B., Hajduk, P. J., Meadows, R. P. & Fesik, S. W. Discovering High-Affinity Ligands for Proteins: SAR by NMR. Science 274, 1531-1534 (1996)).
Molecule,phospho ERK 1/2 [1],phospho ERK 1/2 [2],ligand binding by NMR [3]
"CCCCCCCCCCCCC/C=C/[C@@H](O)[C@@H](N)COP(=O)(O)O [Clone S1P, sphingosine 1-phosphate]",1.280 ng/mL,0.000 ng/mL,–
"FLVWGPLFGLLLADVFGSNLWAQEYLRGMDWILAAVL [Loop 3, conformationally constrained peptide mimicking S1P4 extracellular loop 3]",–,–,reflect ligand binding
"TGAYLANVLLSGARTFRLAPAQWFLREGCLFT [Loop 1 B, conformationally constrained (disulfide) peptide mimicking S1P4 extracellular loop 1]",–,–,reflect ligand binding
